Entries after “also recorded” stand apart in the source; their conditions may differ.
Legend:
pS65-Ub = pS65-Ub ELISA of kidney mitochondrial preparations; assay type: in vivo, mice (C57Bl/6); settings: single i.p. 30 mg/kg cisplatin
Description: Kidneys were removed from -80° C. and minced on an ice block. Minced tissues were transferred to a dounce homogenizer and homogenized with 20× strokes of the 'loose' pestle and 20× strokes of the 'tight' pestle using 1 ml ul of cold mitochondrial isolation buffer (MIB, 50 mM Tris-HCl (pH 7.5), 70 mM sucrose, 210 mM sorbitol, 1 mM EDTA, 1 mM EGTA, 100 mM chloroacetamide, HaltTM Protease and Phosphatase Inhibitor Cocktail, EDTA-free (100×) (PI), 10 μM PR619). Kidney homogenate was transferred to a 1.5 ml Eppendorf tube and were centrifuged at 300×g for 5 min at 4° C. Approximately 800 ul of supernatant was transferred to a new 1.5 ml microcentrifuge tube. The supernatant (cytosol+mitochondria) was transferred to a new tube and centrifuged at 10,000 g for 20 min at 4° C. to pellet the mitochondrial fraction. After removing residual supernatant, mitochondria were resuspended in lysis buffer (100 mM Bicine pH 8.0, 0.27M Sucrose, 1 mM EDTA, 1 mM EGTA, 5 mM Na4P2O7, 100 mM Tris pH 7.5, 1% Triton X-100), containing benzonase (1:1000), HALT protease/phosphatase inhibitors (1:100), and PR-619 de-ubiquitinase inhibitor (1:1000). […] For peroxidase reaction, 50 ul of TMB reagent (Pierce #34029) was added to the wells after washing and wells were monitored closely for reaction development. […] Absorbance was measured at 450 nm using […] SpectraMax). […]

PINK1 = assay: Western blot for PINK1 in kidney mitochondrial preparations; assay type: in vivo, mice (C57Bl/6); settings: C57Bl/6; single i.p. 30 mg/kg cisplatin; FIG. 3B
Description: Kidneys were removed from -80° C. and minced on an ice block. Minced tissues were transferred to a dounce homogenizer and homogenized with 20× strokes of the 'loose' pestle and 20× strokes of the 'tight' pestle using 1 ml ul of cold mitochondrial isolation buffer (MIB, 50 mM Tris-HCl (pH 7.5), 70 mM sucrose, 210 mM sorbitol, 1 mM EDTA, 1 mM EGTA, 100 mM chloroacetamide, HaltTM Protease and Phosphatase Inhibitor Cocktail, EDTA-free (100×) (PI), 10 μM PR619). Kidney homogenate was transferred to a 1.5 ml Eppendorf tube and were centrifuged at 300×g for 5 min at 4° C. Approximately 800 ul of supernatant was transferred to a new 1.5 ml microcentrifuge tube. The supernatant (cytosol+mitochondria) was transferred to a new tube and centrifuged at 10,000 g for 20 min at 4° C. to pellet the mitochondrial fraction. […] The total protein concentration of kidney mitopreps was measured with the Thermo Scientific Pierce BCA Protein Assay Kit (Thermo Scientific), according to its product manual. […] For each lane of a 26 well gel (4-20% CriterionTM Tris-HCl Protein Gel, Bio-Rad Laboratories), 10 μg per sample was loaded and analyzed by Western Blotting. Indicated bands were quantified using ImageStudio Lite and normalized to beta actin band intensity. […]

mitochondrial DNA = assay: kidney mtDNA/nucDNA ratio by qPCR; assay type: in vivo
Description: A small piece of frozen kidney tissue (˜12 mg) was homogenized and DNA extracted using the Qiagen QIAamp DNA mini kit. mtDNA/nucDNA ratio was determined using a qPCR protocol from the Aurwex lab (Quiros et al, 2017), using the following primers: 16S rRNA 5′-[…]-3′(SEQ ID NO:11) and 5′-[…]-3′ (SEQ ID NO:12); ND1 5′-[…]-3′ (SEQ ID NO: 13) and: 5′-[…]-3 (SEQ ID NO:14); HK2 5′-[…]-3′ (SEQ ID NO:15) and 5′-[…]-3′ (SEQ ID NO:16).
Referring to FIG. 4, mice (C57Bl/6) were challenged with a single intraperitoneal dose of 10 mg/kg cisplatin. Tissue lysates were examined for mitochondrial gene ND1 and nuclear gene beta actin by quantitative PCR.
Referring to FIG. 12, mice (C57Bl/6) were challenged with a single intraperitoneal dose of 10 mg/kg cisplatin and dosed by oral gavage, once per day (QD) for seven days with 35985.

[1] = tested on: HeLa cells expressing a YFP-tagged Parkin; assay: Parkin recruitment to mitochondria, longitudinal imaging; assay type: cell-based; settings: 1 mM of FCCP and Oligomycin then specified dose, percentage of cells with Parkin recruited at 60 minutes, FIG. 2
Description: HeLa cells expressing a YFP-tagged Parkin were treated with […] of FCCP and Oligomycin followed by the specified dose of compound, then analyzed by longitudinal imaging. Percentage of cells with Parkin recruited to mitochondria at 60 minutes is shown.

[2] = tested on: KIM-1 (kidney-injury marker 1); assay: urine KIM-1 ELISA in cisplatin-challenged mice; assay type: in vivo, mice (C57Bl/6); settings: for KIM-1 (urine biomarker for kidney injury): single i.p. 10 mg/kg cisplatin, day 3 post-challenge
Description: Urine was collected from scruffed mice (serial collection) or directly from bladder using insulin syringe during harvest (terminal collection). KIM-1 was measured in mouse urine using R&D System's Mouse TIM-1/KIM-1/HAVCR DuoSet ELISA following manufacturer's published protocol.
Referring to FIG. 10, mice (C57Bl/6) were challenged with a single intraperitoneal dose of 10 mg/kg cisplatin or saline (not shown) and dosed by oral gavage once per day (QD) with 35985.

[3] = tested on: HeLa cells expressing a mitophagy indicator (mtKeima) protein; assay: mitophagy in HeLa cells expressing mtKeima, FACS; assay type: cell-based; settings: 1 mM of FCCP and Oligomycin then specified dose of compound, FIG. 1
Description: Briefly, HeLa cells expressing a mitophagy indicator (mtKeima) protein were treated with […] of FCCP and Oligomycin followed by the specified dose of compound, then analyzed by FACS to quantify the percentage of cells undergoing mitophagy.

[4] = body weight loss in cisplatin-challenged mice; assay type: in vivo, mice (C57Bl/6)
Description: Referring to FIG. 9, mice (C57Bl/6) were challenged with a single intraperitoneal dose of 10 mg/kg cisplatin or saline (not shown) and dosed by oral gavage once per day (QD) with 35985.

GDF15 = assay: serum GDF15 ELISA in cisplatin-challenged mice; assay type: in vivo, mice (C57Bl/6); settings: single i.p. 10 mg/kg cisplatin; oral gavage QD 20 mg/kg or 50 mg/kg; after 7 days; FIG. 13
Description: For tissue harvest, mice were anesthetized using isofluorane. Cardiac puncture was performed to withdraw blood for serum collection. Blood was deposited into serum separator tubes and left undisturbed for 30 min to 1 hr at room temperature to allow clotting prior to serum separation by centrifugation for 2 min (10,000 g, room temperature). Collected serum was transferred to Eppendorf tubes and frozen on dry ice. After cervical dislocation, left and right kidneys were extracted and frozen until analysis.
Referring to FIG. 13, mice (C57Bl/6) were challenged with a single intraperitoneal dose of 10 mg/kg cisplatin or saline and dosed by oral gavage once per day (QD) with 20 mg/kg or 50 mg/kg 35985.

N.N.[Cl][Pt][Cl] [cisplatin, reference compound]
pS65-Ub in kidney mitochondria (pS65-Ub; C57Bl/6, FIG. 3A): pS65-Ub increase
kidney mitochondria pS65-Ub levels (pS65-Ub; PINK1 KO mice, different times, FIG. 6, 30 mg/kg): does not induce a change in pS65 Ubiquitin; also recorded: remains unchanged
PINK1 protein in kidney mitochondria (PINK1): induction of PINK1
mitochondrial DNA (mtDNA/nucDNA ratio; ND1 vs beta actin) (mitochondrial DNA; C57Bl/6, single i.p. 10 mg/kg cisplatin, FIG. 4): induces reduction in mtDNA/nucDNA ratio; also recorded: significant reduction in mitochondrial DNA

FC(F)(F)c1cc2c(N[C@@H]3CCCc4ccccc43)ncnc2[nH]1 [compound 35985]
rate of Parkin recruitment to mitochondria [1]: accelerate recruitment of Parkin to mitochondria; also recorded: dose responsive increase in the rate of Parkin recruitment to mitochondria
KIM-1 (urine biomarker for kidney injury) ([2]; 35985 oral gavage QD, FIG. 10): reduces kidney damage in cisplatin challenged mice; also recorded: dose-dependent rescue of KIM-1
percentage of cells undergoing mitophagy [3]: induce mitophagy in a dose dependent manner; also recorded: dose responsive increase in the percentage of cells undergoing mitophagy
cisplatin-mediated weight-loss ([4]; single i.p. 10 mg/kg cisplatin, 35985 oral gavage QD, FIG. 9, 10 mg/kg): ameliorates cisplatin-induced body-weight loss; also recorded: dose-dependent rescue of cisplatin-mediated weight-loss
cisplatin-mediated mitochondrial DNA loss (mitochondrial DNA; single i.p. 10 mg/kg cisplatin, oral gavage QD seven days, at 10 mg/kg and above, FIG. 12): ameliorates mtDNA loss upon cisplatin challenge; also recorded: rescued cisplatin-mediated mitochondrial DNA loss
mitochondrial-stress serum biomarker GDF15 (ELISA) (GDF15): reduces serum GDF15 levels; also recorded: reduced mitochondrial-stress serum biomarker GDF15

c1ccc2c(c1)OC[C@@H](N1CCOCC1)[C@@H]2Nc1ncnc2[nH]c(C3CC3)cc12 [compound 40180]
rate of Parkin recruitment to mitochondria [1]: accelerate recruitment of Parkin to mitochondria; also recorded: dose responsive increase in the rate of Parkin recruitment to mitochondria
KIM-1 (urine biomarker for kidney injury) ([2]; 40180 oral gavage QD, FIG. 14): reduces KIM-1; also recorded: dose-dependent rescue of KIM-1
percentage of cells undergoing mitophagy [3]: induce mitophagy in a dose dependent manner; also recorded: dose responsive increase in the percentage of cells undergoing mitophagy

FC(F)(F)c1cc2c(N[C@H]3c4ccccc4CC[C@@H]3C3C[C@@H]4COC[C@H]4C3)ncnc2[nH]1 [compound 40270]
kidney dysfunction, KIM-1 levels ([2]; single dose cisplatin 10 mg/kg i.p., 53 mg/kg p.o., b.i.d., FIG. 17): reduces KIM-1; also recorded: Dysfunction was ameliorated

C[C@@H]1CN([C@@H]2COc3cc(F)ccc3[C@H]2Nc2ncnc3[nH]c(C(F)(F)F)cc23)CCO1 [compound 41088]
cisplatin-induced weight loss ([4]; single dose cisplatin 10 mg/kg i.p., p.o., q.d. at 1.56, 3.13, 6.25 and 12.5 mg/kg, FIG. 18): reduces weight loss; also recorded: Weight loss was ameliorated
